Patent publication US20080145343A1, “Conjugates of biologically active compounds, methods for their preparation and use, formulation and pharmaceutical applications thereof” (priority 2002, published 2008)
Like-named read-outs stand apart in the source and are kept apart here.

Key:
white blood cells = assay: Immune cell selective uptake from blood cell mix (immune selectivity ratio method); type: cell-based, mammalian
Experimental: Freshly drawn heparinised blood or buffy coat preparations are used for the determination of immune cell partition ratios. Buffy coat preparations are preferred. These may be obtained from donor blood by simple centrifugation of whole blood (4795 g for 10 minutes). Following centrifugation, plasma is collected from the surface, after which immune cells are expressed from the donor bags along with the erythrocytes lying immediately below the leukocyte layer. This ensures high yields and a sufficient population of erythrocytes for partition. 5 ml of the resulting cell suspension are dispensed into T25 culture flasks. Substrates are added to a final concentration between 1 and 10 μM and the suspensions incubated at 37° C., in a 5% CO2 atmosphere. For analysis of uptake kinetics, samples are withdrawn at 0, 2, 5, 10, 30, 60, 90, 180, or 240 min after substrate addition. For screening purposes, samples are taken at 0 and 120 minutes. […]
Uptake of fluorescent compounds is monitored using fluorescence microscopy. Excitation and emission wavelengths depend of the fluorescence label in use. […]
Cell lysates are analysed using a HP 1100 HPLC System (Agilent Technologies, Waldbronn, Germany) with a Kromasil 3.5μ C18, 50×2.0 mm column and guard cartridge system (both, Phenomenex, Aschaffenburg, Germany) run at 30° C. […]
Masses are monitored according to the known or expected M/Z ratios. […]

E. coli (DH5α) = assay: Testing of antibiotic activity (TC50, dilution assay, turbidity); type: cell-based; settings: concentration that inhibits 50% of the growth
Experimental: The TC50 or MIC procedure for antibiotic sensitivity testing involves an antibiotic dilution assay, which can be performed in microtitre plates. A series of twofold dilutions of each antibiotic are made in the wells, and then all wells are inoculated with a standard amount of the same test organism. After incubation, growth in the presence of the various antibiotics is observed by measuring turbidity.
Bacteria: B. pumilus and E. coli (DH5α) Bacterial cultures are initiated from the plates for 2 to 3 weeks. After this time period bacteria are streaked out on new plates from the backups stored at −80° C. Due to the lack of resistance of the bacteria, new cultures are not to be initiated from an old plate or any liquid cultures derived from old plates. Growth medium (GM) (per liter): 10 g Bacto-tryptone, 5 g Bacto-yeast extract, 6 g HEPES (25 mM), 5.4 g NaCl, pH 7.3 Compound stocks 10 or 100 mM in DMSO stored at −20° C.
• 1. Grow B. pumilus from an LB agar plate in a flask (max. 10% volume) up to about 50 ml in growth medium (GM) • 2. Dilute overnight suspension 1:10 in GM • 3. Determine OD600 of diluted bacterial suspension • 4. Dilute bacterial suspension in GM to an OD600 of 0.03-0.04. (6 ml/plate) • 5. Add 200 μl GM to the outer wells (Row A, Row H, Column 1, Column 12) • 6. Add 100 μl GM to each well starting from C2, row 3. • 7. Controls: Wells B2-B4 growth control. Wells B6-B8 blank. Row C growth inhibition control. • 7.1. To wells B2-B4 add: 96 μl GM, 4 μl DMSO, and 100 μl bacterial suspension adjusted to an OD600 of 0.03-0.04. • 7.2. To wells B6-B8 add: 196 μl GM and 4 μl DMSO • 7.3. Dilute a 10 mM Compound 43 (positive control) stock to 800 μM (120 μl/plate) in GM. Add 100 μl of 800 μM Compound 43 solution to well C2. • 8. Samples • 8.1. Dilute the 10 or 100 mM stock solutions to 800 μM (250 μl/plate) in GM. • 8.2. Add 100 μl of 800 μM sample in duplicates to wells D2/E2 resp. F2/G2. • 8.3. 2-fold serial dilution of all samples and Azithromycin • 8.3.1. Rows C-G, Columns 2: Mix and transfer 100 μl from each row to Column 3, and continue until column 11. The remaining 100 μl out of column 11 are disposed. • 9. Add 100 μl of bacterial suspension (OD600 0.03-0.04) to each well from C2-G11. • 10. Incubate plates on shaker, 750 rpm, 37° C., until the growth controls have reached an OD600 of 0.6-0.8 (approximately 6-8 h).
11. Determine OD600 on plate reader.

lymphocytes = assay: Proliferation assay (BrdU ELISA, phytohemagglutanin-stimulated); type: cell-based, mammalian; settings: for Ratio (2 h:72 h): IC50 at 2 h : IC50 at 72 h, lower = better uptake and release; for IC50: Lymphocyte
Excerpt: Assay to determine the in vitro rate of, for example, lymphocyte proliferation. Lymphocytes are purified out of ant coagulated (CPDA, citrate or heparin) mammalian blood using the Lymphoprep™ system (supplier). Purified cells are counted using a hemocytometer following Trypan Blue staining, and a cell concentration of 1×10^6 cells/ml established in RPMi 1640 medium with 10% FCS and antibiotics as required (all from Biochrome). Following the addition of a cell proliferation stimulant, for example phytohemagglutanin (Sigma) at, for example an end concentration of 5 μg/ml, the cells are incubated with different concentrations of the to be investigated compound in 100 μl end volume in a 96-well microtiter plate in an incubator (37° C., 5% CO2, 95% humidity) for 72 h. Cell proliferation is quantified following BrdU incorporation for 16 h by ELISA and subsequent calorimetric development (Cell Proliferation ELISA BrdU (colorimetric) kit from Roche Diagnostics). The IC50 (μM) values are then calculated, and used to compare compound efficacy.
To determine the influence of the T-L-C modification on in vitro cellular drug uptake and pharmacology, the above assay is additionally modified and an additional “wash” step included. In addition to running the assay for 72 h with the compounds to be tested, the assay is also run for just 2 h, then compound is washed away in three serial washing steps using 200 μl of medium at each step, and the cells subsequently incubated for a further 70 h. […] The lower the number, the better the uptake and drug release from the T-L-C in the cells (see results in Table 4 for examples), and improvement over mycophenolic acid.

HeLa or JURKAT = assay: Cytotoxicity assay (Alamar Blue) with guanosine rescue; type: cell-based
Experimental: HeLa cells (DSMZ, ACC 57) and Jurkat cells (DSMZ, ACC 282) in exponential growth phase are exposed for 3 days to test compounds. The number of surviving cells is then determined by the Alamar Blue assay (Serotec Inc.). This assay incorporates a fluorometric growth indicator based on detection of metabolic activity. Specifically, the system incorporates an oxidation-reduction indicator that fluoresces in response to chemical reduction of the growth medium resulting from cell growth. As cells grow in culture, innate metabolic activity results in a chemical reduction of the immediate surrounding environment. Continued growth maintains a reduced environment while inhibition of growth maintains an oxidized environment. […] Fluorescence is monitored at 560 nm (Exc.) and 590 nm Em.
HeLa cells (1×10^3) or JURKAT cells (1×10^3) are plated in 100 μl MEM medium (with Earle's salt; Biochrom KG) containing 10% FBS, 2 mM L-glutamine, and non-essential animo acids in 96-well plates and incubated at 37° C. and 5% CO2 atmosphere. […] The fluorescence is then measured as described above and the LD50 is determined based on a sigmoidal dose response regression. […] Any toxicity still detected can then be ascribed either to other biological effects of the of T-L-C conjugate of mycophenolic acid, or is due to the very high intracellular concentration of mycophenolic acid, following concentrative uptake into the cell.

[1] = read-out: IC50 (μM) at 2 h, 2 h with compound, washed away, further 70 h incubation
[2] = 72 h incubation with compound, read-out: IC50 (μM) at 72 h

| Structure (SMILES) | TC50 in E. coli (E. coli (DH5α)) [nM] | Ratio (2 h:72 h) (lymphocytes) | IC50 (lymphocytes; [1]) [µM] | IC50 (lymphocytes; [2]) [µM] | further results |
| --- | --- | --- | --- | --- | --- |
| COc1cc(C)c(/C(=C\C(C)=O)CC(N)C(=O)O)cc1OC (centres unmarked) [Compound 4] | – | – | – | – | uptake speed (white blood cells; fluorescent compounds, images during uptake): uptake is rapid |
| CC[C@H]1OC(=O)[C@H](C)C(=O)[C@H](C)[C@@H](O[C@@H]2O[C@H](C)C[C@H](N(C)C)[C@H]2OC(=O)Cc2ccccc2Nc2c(Cl)cccc2Cl)[C@](C)(O)C[C@@H](C)CN(C)[C@H](C)[C@@H](O)[C@]1(C)O [Compound 53] | >50000 | – | – | – | – |
| CCOC(=O)CC/C(C)=C/Cc1c(CC(=O)CCC(=O)O[C@@H]2C(N(C)C)C[C@@H](C)O[C@H]2O[C@@H]2[C@@H](C)[C@H](O[C@H]3C[C@@](C)(OC)[C@@H](O)[C@H](C)O3)[C@@H](C)C(=O)O[C@H](CC)[C@@](C)(O)[C@H](O)[C@@H](C)N(C)C[C@H](C)C[C@@]2(C)O)c2c(c(C)c1OC)COC2=O (some centres unmarked) [Compound 69] | – | 1.9 | 2.66 | 1.4 | – |
| CC[C@H]1OC(=O)[C@H](C)C(=O)[C@H](C)[C@@H](O[C@@H]2O[C@H](C)CC(N(C)C)[C@H]2O)[C@](C)(O)C[C@@H](C)CN(C)[C@H](C)[C@@H](O)[C@]1(C)O (some centres unmarked) [Compound 40] | >50000 | – | – | – | – |
| CC[C@H]1OC(=O)[C@H](C)[C@@H](O[C@H]2C[C@@](C)(OC)[C@@H](O)[C@H](C)O2)[C@H](C)[C@@H](O[C@@H]2O[C@H](C)C[C@H](N(C)C)[C@H]2O)[C@](C)(O)C[C@@H](C)CN(C)[C@H](C)[C@@H](O)[C@]1(C)O [Compound 43, 9a-aza-9a-methyl-9-deoxo-9a-homoerythromycin A, reference compound] | 2300 | – | – | – | – |
| CC[C@H]1OC(=O)[C@H](C)[C@@H](O[C@H]2C[C@@](C)(OC)[C@@H](O)[C@H](C)O2)[C@H](C)[C@@H](O[C@@H]2O[C@H](C)CC(N(C)C(=O)CN(C)CCO)[C@H]2O)[C@](C)(O)C[C@@H](C)CN(C)[C@H](C)[C@@H](O)[C@]1(C)O (some centres unmarked) [Compound 45] | >50000 | – | – | – | – |
| CC[C@H]1OC(=O)[C@H](C)[C@@H](C)[C@H](C)[C@@H](O[C@@H]2O[C@H](C)C[C@@H](N(C)CCOC(=O)CC/C(C)=C/Cc3c(O)c4c(c(C)c3OC)COC4=O)[C@@H]2N(C)C)[C@](C)(O)C[C@@H](C)CN(C)[C@H](C)[C@@H](O)[C@]1(C)O [Compound 74] | – | 1.45 | 3.2 | 2.2 | – |
| COc1c(C)c2c(c(O)c1C/C=C(\C)CCC(=O)O)C(=O)OC2 [Mycophenolic acid] | – | – | – | – | effect in the presence of guanosine (HeLa or JURKAT; 50 μM guanosine): completely removed; IC50 (HeLa or JURKAT; normal culture conditions): < 2000 nM |
| CC[C@H]1OC(=O)[C@H](C)[C@@H](OC2C[C@@](C)(OC)[C@@H](O)[C@H](C)O2)[C@H](C)[C@@H](OC2O[C@H](C)C[C@H](N(C)C)[C@H]2O)[C@](C)(O)C[C@@H](C)/C(=N/OCc2cc(=O)oc3cc(OC)c(OC)cc23)[C@H](C)[C@@H](O)[C@]1(C)O (some centres unmarked) [Compound 3] | – | – | – | – | intracellular distribution (white blood cells; polymorphonuclear cells, fluorescent image (FIG. 3)): even distribution with some concentration near the nucleus |
| CC[C@H]1OC(=O)[C@H](C)[C@@H](O[C@H]2C[C@@](C)(OC)[C@@H](O)[C@H](C)O2)[C@H](C)[C@@H](O[C@@H]2O[C@H](C)CC(N(C)C)[C@H]2OC(=O)CC/C(C)=C/Cc2c(O)c3c(c(C)c2OC)COC3=O)[C@](C)(O)C[C@@H](C)CN(C)[C@H](C)[C@@H](O)[C@]1(C)O (some centres unmarked) [Compound 67] | – | 1.3 | 1.74 | 1.36 | – |
